Data from patent US20240299376A1, “METHOD OF TREATING A CONDITION USING A […] EFFECTIVE DOSE OF 1-(1-OXO-1,2-DIHYDROISOQUINOLIN-5-YL)-5-(TRIFLUOROMETHYL)-N-(2-(TRIFLUOROMETHYL)PYRIDIN-4-YL)-1H-PYRAZOLE-4-CARBOXAMIDE” (Janssen Pharmaceutica NV, priority 2021, published 2024).
Where two headings read alike, the source gives them in different places. Marks after values point to notes of the source that are not given here.

How the values were obtained:
[1] = system: HLY-1 (Myd88/CARD11/homoz A20 mut); test: Anti-proliferative activity, DLBCL cell line panel; assay type: cell-based; settings: 192 h; antiproliferation after 8 days of treatment
OCI-LY3 cells = test: Whole-gene transcriptomics; assay type: cell-based, human; settings: OCI-LY3 (Myd88 and CARD11 mutations)
[2] = system: phosphorylation of IκBα in OCI-LY3 cells; settings: unstimulated conditions
Description: The phospho-IκBα (pIκBα) signal was quantified as percent of DMSO control and normalized against β-tubulin.

[3] = system: HBL1 (CD79b/Myd88/A20 mut); test: Anti-proliferative activity, DLBCL cell line panel; assay type: cell-based; settings: HBL1, 192 h; antiproliferation after 8 days of treatment
Description: (§1) Four ABC-DLBCL cell lines with activating mutations in the canonical NFκB pathway were evaluated (OCI-LY3 (CARD11, MYD88 & A20 mutations), TMD8, HBL1, and OCI-LY10 (CD79B & MYD88 mutations)), which are generally sensitive to NF-κB pathway inhibition. None of the GCB-DLBCL cell lines harbor mutations in the NF-κB pathway. The GCB-DLBCL cell lines served as a negative control to exclude compounds with general cytotoxic effects.
(§2) At concentrations ≥20 μM general cytotoxicity was observed.

[4] = system: TMD8 (CD79b/Myd88/A20 mut); test: Anti-proliferative activity, DLBCL cell line panel; assay type: cell-based; settings: Homo sapiens, TMD8, 192 h; antiproliferation after 8 days of treatment
Description: as §1, §2

[5] = system: OCI-LY3 (Myd88/CARD11 A20 mut); test: Anti-proliferative activity, DLBCL cell line panel; assay type: cell-based; settings: Homo sapiens
Description: as §1, §2

OCT-Ly7 (no NF-κB mut) = test: Anti-proliferative activity, DLBCL cell line panel; assay type: cell-based; settings: 192 h; antiproliferation after 8 days of treatment
Description: as §1, §2

SU-DHL4 (no NF-κB mut) = test: Anti-proliferative activity, DLBCL cell line panel; assay type: cell-based; settings: Homo sapiens, SU-DHL-4, 192 h; antiproliferation after 8 days of treatment
Description: as §1, §2

OCI-Ly1 (no NF-κB mut) = test: Anti-proliferative activity, DLBCL cell line panel; assay type: cell-based; settings: Homo sapiens, OCI-Ly1, 192 h; antiproliferation after 8 days of treatment
Description: as §1, §2

[6] = system: IL-10 secretion by OCI-LY3 ABC-DLBCL cells; test: IL-10 secretion assay (MesoScale Discovery); assay type: cell-based; settings: Homo sapiens; supernatants of OCI-LY3 cells, 16 independent experiments
Description: NF-κB signaling regulates the secretion of multiple cytokines, including interleukin (IL)-6 and IL-10. Libermann T A et al. Mol Cell Biol. 1990; 10(6):3155-3162; and Cao S, et al. J Biol Chem. 2006; 281(36):26041-26050. Secretion of the cytokines IL-6 and IL-10 by OCI-LY3 ABC-DLBCL cells was measured using a MesoScale Discovery (MSD) assay.

[7] = system: human cytokine IL-10 in serum; test: Serum IL-10 (MSD assay) after a single dose in OCI-LY3 tumor-bearing NSG mice; assay type: in vivo
Description: NF-κB signaling regulates the secretion of multiple cytokines, including interleukin-10 (IL-10). MALT1 inhibition results in a decrease of IL-10 transcription and translation as well as secretion. Levels of the human cytokine IL-10 were measured in the serum of OCI-LY3 or OCI-LY10 ABC-DLBCL tumor bearing mice using a Mesoscale Discovery assay (MSD). 25 μL of mouse serum was transferred to an MSD plate (V-Plex Proinflammation Panel I (human) kit) and incubated together with 25 μL diluent 2 (MSD; R51BB-3) for 2 hours at RT followed by a 2-hour incubation with IL-10 antibody solution. Plates were read on a SECTOR imager. Serum human IL-10 levels were correlated to serum compound concentration.
Serum IL-10 levels are graphed as the mean+/−SD.
(§3) For PD, when tumors reached 550-750 mm^3 animals were assigned randomly into the treatment groups and treated as presented in Table 5. Dose volumes were adjusted to individual body weights at 10 mL/kg. For both PD studies, serum was collected at 2 and 12 hours post treatment from the retro-orbital sinus. At 24 hours post treatment, animals were bled via decapitation and tumors were excised, weighed, and divided for bioanalysis and ex vivo PD analysis. Blood was centrifuged at 10,000 rpm and serum divided for bioanalysis and PD analysis.

[8] = Serum and tumor levels after a single oral dose in male OCI-LY3 tumor-bearing NSG mice; assay type: in vivo; settings: 100 mg/kg single oral dose, PEG400 solution, mean (SD)
Description: as §3
Serum samples were collected at 2, 12, and 24 hours post dose and tumor samples were collected 24 hours post dose.

Single IV dose plasma PK = assay type: in vivo, mouse
Description: Single intravenous (IV) dose PK was conducted in mice (two strains), rats, monkeys, and dogs at a dose of 1 mg/kg in 70% PEG400 (PEG400/water 70:30) by bolus injection. The time course for plasma sample was optimized to fully characterize the disposition profile in each species. PK analysis was by non-compartmental method.

[9] = 14-day oral toxicity study toxicokinetics in dogs (beagles); assay type: in vivo, dog; settings: for Cmax: female, beagle, dog, in vivo, po, 250 mg/kg/day
Description: Repeated-dose PK (toxicokinetics) were obtained as part of the repeated oral dose toleration toxicity studies in rats and dogs.
However, there was no increase in the exposure parameters at 250 mg/kg/day from the first day of dosing until Day 7 when the dose group was terminated.

[10] = male, plasma, Mouse, CD-1, 3M, 1 mg/kg IV in 70% PEG400, mean
[11] = male, plasma, Mouse, NSG, 3M, 1 mg/kg IV in 70% PEG400, mean
[12] = Day 1, 10 to 50 mg/kg/day (5-fold increase in dose)
[13] = Day 1, 10 to 250 mg/kg/day (25-fold increase in dose)

In the case of `O=C(Nc1ccnc(C(F)(F)F)c1)c1cnn(-c2cccc3c(=O)[nH]ccc23)c1C(F)(F)F` [Compound A, 1-(1-oxo-1,2-dihydroisoquinolin-5-yl)-5-(trifluoromethyl)-N-[2-(trifluoromethyl)pyridin-4-yl]-1H-pyrazole-4-carboxamide], the IC50 [1] is reported as 8800 nM, the gene expression changes (OCI-LY3 cells) is reported as “clear dose-dependent gene expression changes” and the “inhibition of phospho-IκBα” value [2] is reported as “did not inhibit phospho-IκBα”. For the same molecule, the IC50 [3] was 547 nM, the IC50 [4] was 635 nM and the IC50 ([5]; OCI-Ly3, 192 h, antiproliferation after 8 days of treatment) was 496 nM. The IC50 ([5]; Proliferation, OCI-LY3) was 496 ± 262 nM, the IC50 (OCT-Ly7 (no NF-κB mut)) was over 10000 nM and the IC50 (SU-DHL4 (no NF-κB mut)) was 6000 nM. For the same molecule, the IC50 (OCI-Ly1 (no NF-κB mut)) was over 10000 nM, the IC50 [6] was 77 ± 24 nM and the “inhibition or reduction of serum IL-10” value ([7]; single dose 10 mg/kg, 12 hours post dose) was “intermediate inhibition or reduction”. For the same molecule, the “inhibition or reduction of serum IL-10” value ([7]; single dose 30 mg/kg, 12 hours post dose) was “completely inhibited or reduced serum IL-10”, the “inhibition or reduction of serum IL-10” value ([7]; single dose 100 mg/kg, 12 hours post dose) was “completely inhibited or reduced serum IL-10” and the “inhibition or reduction of serum IL-10” value ([7]; single dose, 24 hours post dose) was “lost at 24 hours post dose”. For the same molecule, the Serum concentration ([8]; 12 h post dose) was 4,118 (1,322 ng/ml, the Tumor concentration ([8]; 24 h post dose, N = 4) was 1,180 (223)^b ng/g and the concentration at 2 h ([8]; male, NSG, mouse, serum, 2 h post dose) was 3730 ng/mL. For the same molecule, the concentration at 24 h ([8]; male, NSG, mouse, serum, 24 h post dose) was 1060 ng/mL, the Vd (Single IV dose plasma PK; CD-1 and NSG (mouse), Sprague-Dawley (rat), beagle (dog), plasma, similar across all species (mouse, rat, monkey, dog), IV 1 mg/kg, read-out: apparent volume of distribution at steady state) was about 1 L/kg and the AUC(0-inf) (Single IV dose plasma PK; [10]) was 12200 ng·h/mL. It also gave a C0 (Single IV dose plasma PK; [10]) of 940 ng/mL, a clearance (Single IV dose plasma PK; [10]) of 1.3 mL/min/kg and a Vd (Single IV dose plasma PK; male, plasma, Mouse, CD-1, 3M, 1 mg/kg IV in 70% PEG400, mean, read-out: Vdss) of 1.4 L/kg. It also gave an AUC(0-inf) (Single IV dose plasma PK; [11]) of 5490 ng·h/mL, a C0 (Single IV dose plasma PK; [11]) of 1130 ng/mL and a clearance (Single IV dose plasma PK; [11]) of 3.04 mL/min/kg. The half-life (Single IV dose plasma PK; [11]) was 5.28 h, the Vd (Single IV dose plasma PK; male, plasma, Mouse, NSG, 3M, 1 mg/kg IV in 70% PEG400, mean, read-out: Vdss) was 1.23 L/kg and the “CL as fraction of liver blood flow (LBF)” value (Single IV dose plasma PK; mouse, LBF 90 mL/min/kg) was 1.4%. For the same molecule, the “increase in AUC0-24h with dose” value [9, 12] was 5.8 fold, the “increase in Cmax with dose” value [9, 12] was 5.5 fold and the “increase in AUC0-24h with dose” value [9, 13] was 23 fold. The “increase in Cmax with dose” value [9, 13] was 20 fold, the “relation of single doses to maximum tolerated dose (MTD)” value ([9]; escalated single oral doses vs MTD upon 14 days of dosing in dogs) was “greater than the maximum tolerated dose (MTD) upon 14 days of dosing in dogs” and the toxicity findings ([9]; female beagles, 10, 50, and 250 mg/kg/day PO for 14 days) was “moribundity and mortality resulted in early termination of the 50 and 250 mg/kg dose groups”. For the same molecule, the Cmax [9] was 263,000 ng/mL and the Cmax ([9]; Cmax) was 290000 ng/mL.
